Laboratory results: patent US20130191934A1, “TREATMENT OF SYMPTOMS ASSOCIATED WITH MENOPAUSE” (INDIANA UNIVERSITY RESEARCH AND TECHNOLOGY CORPORA, priority 2010, published 2013)
“Also recorded” adds a separate entry of the source.

What was measured:
ORX1 and ORX2 receptors = conditions: cited from earlier work
[1] = under investigation for insomnia; cited from earlier work
OVEX'ed rats = conditions: cited from earlier work; for anxiety behaviors in the elevated plus maze (EPM) and open field tests (OFT): OVEX'ed rats; for block of the anxiety induced by OVEXing a female rat: daily s.c.: E2 0.25 mg/kg, DPN 1.0 mg/kg, PPT 1.0 mg/kg, Walf et al., 2010
panic-prone rats = test: Sodium lactate challenge in panic-prone (l-allylglycine) rats; assay type: in vivo, rat; conditions: for anxiety-like responses (social interaction duration) after sodium lactate: 30 mg/kg i.p. before 15 min i.v. 0.5M sodium lactate, FIG. 1b; for lactate induced increases in core body temperature / lactate induced increases in heart rate: 30 mg/kg i.p.; for lactate induced increases in core body temperature: FIG. 1c; for lactate induced increases in heart rate: FIG. 1d
Source text: Panic disorder is associated with disruption of central inhibitory gamma-aminobutyric acid (GABAergic) tone, and may contribute to panic attacks which are consistently provoked by ordinarily mild physical stressors such as mild osmotic disturbances (e.g., intravenous sodium lactate challenges).
Orexin/hypocretin producing neurons are almost exclusive to dorsomedial hypothalamus and adjacent lateral hypothalamus, and play a critical role in maintaining wakefulness, vigilance and central sympathetic mobilization, which are key components of panic and anxiety. Experiments were conducted to investigate whether the administration of either a systemic orexin 1 antagonist or silencing the hypothalamic orexin gene product with RNA interference could block lactate-induced panic responses.

[2] = tested on: dorsomedial hypothalamus (DMH) of anesthetized rat; test: BMI microinjection into the DMH of anesthetized rats; assay type: in vivo; conditions: 30 mg/kg i.p.; BMI 20 pmol/50 nL into DMH; FIG. 2; listed as SB334861
Method: FIG. 2 Continuous and simultaneous measurement of blood pressure (top panel), heart rate (middle panel), and core body temperature (bottom panel) in an isoflurane anesthetized rat after identical microinjections of BMI (20 pmol/50 nL) into the DMH (time marks 1 and 3) before and after systemic administration of the orexin-1 receptor antagonist SB334861 (30 mg/kg i.p.; time mark 2).
As disclosed herein, experiments were conducted to determine whether an orexin-1 receptor antagonist (SB334861) or an orexin-2 receptor antagonist (TCSOX229) could attenuate the physiologic responses to chemical stimulation of the DMH. Chemical stimulation or disinhibition of neurons in the region of the dorsomedial hypothalamus (DMH) was conducted using the GABAA receptor antagonist bicuculline methiodide (BMI). To test orexin inhibitors ability to attenuate the BMI stimulated response, BMI was microinjected (20 pmol/50 nL) into the DMH of urethane-anesthetized rats both before and after systemic administration of the orexin inhibitor, and the responses were monitored.

[3] = tested on: adult female rats (OVEX or tamoxifen); test: Open field anxiety test in tamoxifen-treated or ovariectomized female rats; assay type: in vivo, rat; conditions: for anxiety-like behavior (time spent in center of open field) in OVEX rats: 30 mg/kg i.p. 30 min prior to testing, OVEX female rats, FIG. 3B
Method: FIG. 3A & 3B are bar graphs showing the effects of subcutaneously injecting adult female rats with 3 days of vehicles (10% DMSO, 90% sesame oil) or 10 mg/kg tamaoxifen (a nonselective estrogen receptor antagonist) on time spent in the center of an open field. * represents p,0.05 with unpaired t-test. n=6/group. […] Bars represent mean and error bars represent SEM. * represents p,0.05 Mann Whitney U test following an ANOVA f(3,35)=2.9, p=0.048.
Furthermore, experiments were conducted to investigate the impact of lowering estrogen activity by either administering tamoxifen or ovariectomizing rats.

[4] = tested on: female ovariectomized, or sham-OVEX control, rats; test: Hypercapnia (20% CO2) challenge, tail skin temperature in OVEX rats; assay type: in vivo, rat; conditions: 30 mg/kg pretreatment
Source text: Hypercapnia model: There is also evidence that altered respiration patterns may trigger hot flashes whereas paced respiration may alleviate hot flash incidence and intensity. Increased or decreased respiration activity alters blood CO2/pH levels, and a hypersensitivity to CO2/pH may be present in conditions where estrogen activity is very low.

[5] = 30 mg/kg intraperitoneal; cited from earlier work
menopausal women = conditions: cited from earlier work
ORX-ir neurons = test: c-Fos induction in ORX-ir neurons after yohimbine; assay type: in vivo, rat; conditions: 5 mg/kg i.p.; male rats; FIG. 5A
Source text: (§1) FIG. 5A & 5B are graphs showing the effects of yohimbine on cellular responses. […] Black and gray outlined bars respectively represent c-FOS/ORX double and total ORX-ir labeled neurons in the hypothalamus. *Mann-whiney U=1.5, p=0.001. […] Treatment by time effect F(89,267)=2.7, p<0.001.
(§2) Conversely, administering intravenous infusions of yohimbine (alpha2-adrenergic autoreceptor antagonist) to symptomatic, but not asymptomatic, menopausal women provokes “hot flashes” (Freedman et al, Obstet Gynecol, 1990. 76(4): p. 573-8). […] A dramatic drop in core body temp also immediately follows this, which also occurs in women following the onset of a hot flash.

[6] = tested on: female ovariectomized rats; test: Yohimbine challenge, tail skin and core body temperature in OVEX rats; assay type: in vivo, rat; conditions: 5 mg/kg i.p.
Method: as §1
To objectively measure “hot flash” (assessed by tail temp) related activity in female OVEX rats, magnetically activated radiotelemetry probes (dimensions: 3.5 cc volume with 0.05° C. resolution) were implanted subcutaneously under the skin on the back of rat. The probe has 2 leads, each with an ˜1 cm long temp sensor that can be implanted in the tail and into the abdominal cavity to respectively measure skin and core body temp (as well as general ambulatory activity) in freely moving rats for extended periods. Recently we used the dual thermistor probes and were able to replicate previous findings that tail temp decreases during active phase in sham-OVEX rats, but this decrease is blunted in OVEX rats (FIG. 4B).
as §2

[7] = listed as orexin 1 receptor antagonist
[8] = OVEX rats, 5 min 20% CO2, FIG. 6B

For `CNC(=O)[C@@H](c1ccccc1)N1CCc2cc(OC)c(OC)cc2[C@@H]1CCc1ccc(C(F)(F)F)cc1` [Almorexant], the “mode of orexin receptor antagonism” value (ORX1 and ORX2 receptors) is given as “competitive, dual ORX1 and ORX2 receptor antagonists” and the “safety and side effects in phase III trials” value [1] is given as “safe, have few side effects”.
In the case of `N#CC(Cc1ccc(O)cc1)c1ccc(O)cc1` (stereo not drawn) [DPN, diarylpropionitrile], the “anxiety behaviors in the elevated plus maze (EPM) and open field tests (OFT)” value (“anxiety behaviors” below) (OVEX'ed rats) is listed as “decreased anxiety behaviors” and the “block of the anxiety induced by OVEXing a female rat” value (shortened to “block of the anxiety induced”) (OVEX'ed rats) is listed as “block the anxiety”.
In the case of `C[C@]12CC[C@@H]3c4ccc(O)cc4CC[C@H]3[C@@H]1CC[C@@H]2O` [E2, 17-β-estradiol], the “anxiety behaviors” value (OVEX'ed rats) is given as “decreased anxiety behaviors” and the “block of the anxiety induced” value (OVEX'ed rats) is given as “block the anxiety”.
In the case of `Cc1ccc(-n2nccn2)c(C(=O)N2CCN(c3nc4cc(Cl)ccc4o3)CC[C@H]2C)c1` [MK4305], the “mode of orexin receptor antagonism” value (ORX1 and ORX2 receptors) is given as “competitive, dual ORX1 and ORX2 receptor antagonists” and the “safety and side effects in phase III trials” value [1] is given as “safe, have few side effects”.
For `CCCc1c(-c2ccc(O)cc2)nn(-c2ccc(O)cc2)c1-c1ccc(O)cc1` [PPT, Tris(4-hydroxyphenyl)-4-propyl-1Hpyrazole], the “anxiety behaviors” value (OVEX'ed rats) is listed as “increase anxiety behaviors” and the “block of the anxiety induced” value (OVEX'ed rats) is listed as “not”.
In the case of `Cc1nc2ccc(NC(=O)Nc3ccnc4cccnc34)cc2o1` [SB334867, 1-(2-methylbenzoxazol-6-yl)-3-[1,5]naphthyridin-4-yl urea], the “anxiety-like responses (social interaction duration) after sodium lactate” value (panic-prone rats) is reported as “Blocks; also recorded: attenuated”, the “anxiety-like responses (social interaction duration) after sodium lactate” value (panic-prone rats; [7]) is reported as “blocks” and the “lactate induced increases in core body temperature” value (panic-prone rats) is reported as “block; also recorded: attenuated”. The “lactate induced increases in core body temperature” value (panic-prone rats; [7]) was “blocks”, the “lactate induced increases in heart rate” value (panic-prone rats) was “attenuated” and the “lactate induced increases in heart rate” value (panic-prone rats; [7]) was “blocks”. The “BMI-evoked increase in blood pressure” value [2] was “significant attenuation”, the “BMI-evoked increase in core body temperature” value [2] was “significant attenuation” and the “BMI-evoked increase in heart rate” value [2] was “significant attenuation”. The “anxiety-like behavior (time spent in center of open field) in OVEX rats” value [3] was “reverses anxiogenic effects”, the “anxiety-like behavior (time spent in center of open field) in OVEX rats” value ([3]; listed as ORX 1 receptor antagonist) was “reverse the anxiogenic effects of OVEX” and the “intensity of the hot flash (tail skin temperature) after 20% CO2” value [4, 8] was “reduces the intensity”. The “onset of the hot flash (tail skin temperature) after 20% CO2” value [4, 8] was “delays the onset”, the “baseline levels of tail temp in controls” value ([4]; sham-OVEX controls) was “reduced baseline levels of tail temp” and the “crossing of blood brain barrier” value [5] was “crosses blood brain barrier”. The “duration of central activity” value [5] was over 4 h.
For `Cc1nnc2n1-c1ccc(Cl)cc1C(c1ccccc1)=NC2` [alprazolam], the “lactate-induced responses versus vehicle treated groups (Fisher's LSD, p<0.05)” value (panic-prone rats; alprazolam 3 mg/kg i.p., FIG. 1) was “significant differences”.
In the case of `Clc1cccc(Cl)c1N=C1NCCN1` [clonidine], the “incidence of hot flashes in menopausal women” value (menopausal women; Freedman et al, 1990) is listed as “reduce the incidence”.
For `CC/C(=C(\c1ccccc1)c1ccc(OCCN(C)C)cc1)c1ccccc1` [tamoxifen], the “anxiety-like behavior (time spent in center of open field) compared to controls” value ([3]; tamoxifen 10 mg/kg s.c., 3 days, adult female rats, FIG. 3A) was “increased anxiety-like behavior”.
With `COC(=O)[C@@H]1[C@H]2C[C@H]3c4[nH]c5ccccc5c4CCN3C[C@@H]2CC[C@@H]1O` [yohimbine] the “cellular responses (c-Fos induction) in ORX neurons” value (ORX-ir neurons) was “increase cellular activity in ORX neurons”, the tail skin temperature ([6]; female OVEX vs sham-OVEX rats, FIG. 5B) was “rapidly increase tail skin temp in female OVEX, but not sham OVEX control rats” and the “core body temp following tail skin temp increase” value ([6]; yohimbine challenge) was “dramatic drop”. For the same compound, the “provocation of hot flashes” value (menopausal women; intravenous infusions, symptomatic, but not asymptomatic, menopausal women) was “provokes”.
